Data from US20250302837A1, “INHIBITORS OF CHYMASE FOR USE IN THE SELECTIVE RESOLUTION OF THROMBI IN THROMBOTIC OR THROMBOEMBOLIC DISORDERS” (SOCPRA SCIENCES SANTÉ ET HUMAINES S.E.C., priority 2022, published 2025).
pIC50: −log10 of the molar value. Values belong to the compound of their own block, whether it stands above or below them.

Key:
[1] = biological target: plasminogen/plasmin (Homo sapiens (Human), UniProt P00747); experiment: Halo assay: tPA-induced fibrinolysis of human blood halos, plasmin inhibitor control; conditions: 0.1 μM or 1 μM co-administered with tPA, pre-formed halo
[2] = biological target: Recombinant human cathepsin G (Homo sapiens (Human), UniProt P08311); experiment: Selectivity: cathepsin G assay; type: biochemical
Procedure: Recombinant human cathepsin G (CathG) protein (Protein Technologies, Bayer A G) was used. […] IC50 values were calculated using an in-house software.

[3] = biological target: Plasmin (Homo sapiens (Human), UniProt P00747); experiment: Serine protease selectivity assay: plasmin; type: biochemical
Procedure: (§1) The potency of test compounds against several other human serine proteases, including coagulation proteases, in buffer was analyzed in biochemical assays based on the fluorimetric detection of aminomethylcoumarine (AMC) cleaved from specific synthetic peptidic substrates by the respective proteases.
(§2) Serine protease assays were comprised of the following enzymes and substrates (final assay concentrations are given).
(§3) Test compounds were diluted in dimethylsulfoxide (DMSO) to final assay concentrations of 0-50 μM. The respective human serine protease and the respective substrate were diluted in buffer solutions (pH 7.4) consisting of 50 mM Tris/HCl, 100 mM NaCl, 5 mM CaCl2, and 0.1% bovine serum albumin to the final concentrations given below. Diluted test compound or DMSO (1 μL) in assay buffer (20 μL), diluted serine protease solution (20 μL), and substrate solution (20 μL) were added to 384-well microtiter plates (Greiner Bio-One, Frickenhausen, Germany).

[4] = biological target: Plasma kallikrein (Homo sapiens (Human), UniProt P03952); experiment: Serine protease selectivity assay: plasma kallikrein; type: biochemical
Procedure: as §1, §2, §3

[5] = biological target: Thrombin (Homo sapiens (Human), UniProt P00734); experiment: Serine protease selectivity assay: thrombin; type: biochemical
Procedure: as §1, §2, §3

[6] = biological target: Trypsin (Homo sapiens, UniProt P07477); experiment: Serine protease selectivity assay: trypsin; type: biochemical
Procedure: as §1, §2, §3

[7] = biological target: Tissue plasminogen activator (Homo sapiens (Human), UniProt P00750); experiment: Serine protease selectivity assay: tPA; type: biochemical
Procedure: as §1, §2, §3

[8] = biological target: Factor Xa (Homo sapiens (Human), UniProt P00742); experiment: Serine protease selectivity assay: factor Xa; type: biochemical
Procedure: as §1, §2, §3

[9] = biological target: Factor XIa (Homo sapiens (Human), UniProt P03951); experiment: Serine protease selectivity assay: factor XIa; type: biochemical
Procedure: as §1, §2, §3

[10] = biological target: T1, human chymase (rCMA-1) (Homo sapiens (Human), UniProt P23946); experiment: Plasmin activity in the presence of human chymase; type: biochemical; conditions: human plasmin + rCMA-1; fulacimstat 0.1-[…], TY-51469 0.1 or 1 μM
Procedure: (§4) Active murine cathepsin C was diluted to 20 μg/mL in cathepsin C buffer (50 mM MES, 50 mM NaCl, 5 mM DTT, pH 5.5). Activation was performed by adding equal volumes of recombinant chymase and cathepsin C, adding 50 μg/mL heparin and incubating 1 h at room temperature.

[11] = biological target: recombinant mouse mMCP-4 (rmMCP-4) (Mus musculus (Mouse), UniProt P21812); experiment: Plasmin activity in the presence of murine chymase; type: biochemical; conditions: mouse plasmin + rmMCP-4; fulacimstat 0.1-[…], TY-51469 0.1 or 1 μM
Procedure: as §4, with “temperature. […] Plasmin activity was determined by the hydrolysis rate of 50 μM of substrate, D-Ala-Leu-Lys-7-amido-4-methylcoumarin (Sigma Aldrich, Saint-Louis, MO, USA) at 37° C. for 1 h, combined in a white 96-well microtitre plate.” for “temperature.”

[12] = biological target: T1, human chymase (rCMA-1); experiment: Human plasmin degradation by chymase, cleavage products by LC-MS/MS; type: biochemical; conditions: FIG. 3A
Procedure: (§7) The reaction was stopped with an equal volume of formic acid (FA) (for a final concentration of 4% (v/v) in water) and samples were maintained on ice until protein precipitation.
Proteins from in vitro cleavage assays were first precipitated by the addition of trichloroacetic acid (TCA) to a final concentration of 10% (v/v) and incubated for 30 min at −20° C. […] Protein pellet was washed with cold 100% acetone, air dried, and re-suspended in 50 μL of a solution containing 8 M urea, 10 mM HEPES-KOH (pH 7.4). […] The proteins were digested by adding 1 g Pierce MS-grade trypsin (Thermo Fisher Scientific, Waltham, MA, USA) and incubated overnight at 30° C. Digestion was stopped by adding trifluoroacetic acid (TFA) to a final concentration of 0.2% (v/v). The peptides were purified with Pierce C18 100-μL tips column (Thermo Fisher Scientific, Waltham, MA, USA). Briefly, the C18 tip column was first moistened by suctioning 100 μL of 100% acetonitrile (ACN) three times, then equilibrated by suctioning 100 μL of 0.1% (v/v) TFA buffer 3 times. Each peptide sample was passed on the balanced C18 tip column by 10 succeeding up-and-downs of 100 μL of the sample. This step was performed twice in order to administer the entire sample on the column. The C18 tip column was then washed with 100 μL of 0.1% (v/v) TFA buffer 3 times. […] This step was carried out 3 times to obtain a final volume of 300 μL. […]

[13] = biological target: Mouse chymase (rmMCP-4) (Mus musculus (Mouse), UniProt P21812); experiment: Mouse plasmin degradation by chymase, cleavage products by LC-MS/MS; type: biochemical; conditions: FIG. 3B
Procedure: as §7
Proteins from in vitro cleavage assays were first precipitated by the addition of trichloroacetic acid (TCA) to a final concentration of 10% (v/v) and incubated for 30 min at −20° C. […] Protein pellet was washed with cold 100% acetone, air dried, and re-suspended in 50 μL of a solution containing 8 M urea, 10 mM HEPES-KOH (pH 7.4). The protein reduction step was carried out by adding DTT (Thermo Fisher Scientific, Waltham, MA, USA) to a final concentration of 5 mM and boil at 95° C. for 2 min, then incubated at room temperature for 30 min. […] Urea concentration was decreased to 2 M by the addition of 150 μL of 50 mM ammonium bicarbonate (NH4HCO3). The proteins were digested by adding 1 g Pierce MS-grade trypsin (Thermo Fisher Scientific, Waltham, MA, USA) and incubated overnight at 30° C. Digestion was stopped by adding trifluoroacetic acid (TFA) to a final concentration of 0.2% (v/v). The peptides were purified with Pierce C18 100-μL tips column (Thermo Fisher Scientific, Waltham, MA, USA). Briefly, the C18 tip column was first moistened by suctioning 100 μL of 100% acetonitrile (ACN) three times, then equilibrated by suctioning 100 μL of 0.1% (v/v) TFA buffer 3 times. […]

[14] = tested on: mouse venous stenosis (DVT) model; experiment: Venous stenosis model in mouse (IVC), thrombus measurement; type: in vivo
Procedure: By doing this, we ensure that the endothelium is not denuded and that a residual flow of 10% in the IVC still remains. The guts were subsequently moved back in their original location in the abdomen and the abdominal cavity was closed in layers with a braided 5.0 absorbable suture. […] The IVCs were dissected post-euthanasia, and thrombi isolated, measured, weighed, and finally stored at −80° C.
(§5) The stenosis was evaluated 24- or 48-hours post-ligation. The IVCs were dissected, and thrombi were isolated, measured, and weighted.
as §5

[15] = tested on: mouse venous stenosis model; experiment: Blood flow (Doppler ultrasound) in venous stenosis model in mice; type: in vivo
Text: The main goal in thrombosis is to ensure sufficient blood flow for an appropriate maintenance of the tissue surrounding the vessel. […] Mice were anesthetized during the procedure (2% isoflurane; 4% oxygen) and their abdomens were shaved and covered with ultrasound gel.

[16] = tested on: mouse FeCl3-induced injury thrombosis model; experiment: Ferric chloride-induced injury at the inferior vena cava in mouse; type: in vivo; conditions: mouse IVC FeCl3 injury; 10 mg/kg TY-51469 intraperitoneal 1 h prior to anesthesia
Procedure: A laparotomy was performed, and the guts were gently displaced without injury from the abdominal cavity and conserved in 0.9% NaCl solution (37° C.). The IVC was exposed by separation of the vessel between the renal and iliolumbar veins. […] The guts were subsequently moved back in their original location in the abdomen. Mice were sacrificed 30 min later to access the thrombotic area in the IVC. IVCs were dissected and thrombi were isolated and weighted with an analytical balance (0.1 mg accuracy, Entris II, Sartorius).

[17] = tested on: chymase in mouse thrombus extracts; experiment: Intra-thrombus chymase enzymatic activity ex vivo, mouse thrombi; type: biochemical; conditions: thrombus from venous stenosis in mouse, +10 μM TY-51469
Procedure: (§6) Plasmin activity was determined by the hydrolysis rate of 50 μM of substrate, D-Ala-Leu-Lys-7-amido-4-methylcoumarin (Sigma Aldrich, Saint-Louis, MO, USA) at 37° C. for 1 h. Chymase activity was determined by the hydrolysis rate of 10 μM of substrate, Suc-Leu-Leu-Val-Tyr-7-amido-4-methylcoumarin (Peptide Institute Inc., Osaka, Japan) at 37° C. for 1 h. The fluorescence released was measured with an Infinite M1000 spectrophotometer (Tecan Group Ltd., Mannerdorf, Switzerland) with λex=370 nm and λem=460 nm.

[18] = biological target: plasmin in mouse thrombus extracts (Mus musculus (Mouse), UniProt P20918); experiment: Intra-thrombus plasmin enzymatic activity ex vivo, mouse thrombi; type: biochemical; conditions: thrombus from venous stenosis in mouse, +10 μM TY-51469
Procedure: as §6

[19] = tested on: mouse tail bleeding model; experiment: Tail bleeding time in mouse; type: in vivo
Procedure: The tail was cut 3 mm starting from the extremity. The time at which the bleeding stopped was noted. After 30 min, all animals were euthanized.

[20] = biological target: recombinant human chymase (Homo sapiens (Human), UniProt P23946); experiment: Enzymatic chymase activity assay (human)
[21] = biological target: recombinant hamster chymase; experiment: Enzymatic chymase activity assay (hamster)
[22] = oral intake; cited from earlier work
[23] = cited from earlier work
[24] = TY-51469 0.1 mg/kg i.p. 1 h after initiation of stenosis, observation 24 h
[25] = TY-51469 1 mg/kg i.p. 1 h after initiation of stenosis, observation 24 h
[26] = TY-51469 10 mg/kg i.p. 1 h after initiation of stenosis, observation 24 h
[27] = TY-51469 10 mg/kg i.p. 24 h after initiation of stenosis, observation 48 h
[28] = 10 mg/kg TY-51469 i.p. 1 h after start of stenosis, 6 h post-ligation
[29] = 10 mg/kg TY-51469 i.p. 1 h after start of stenosis, 24 h post-ligation
[30] = TY-51469 group, non-ligated (pre-ligation baseline)

tPA-induced fibrinolysis of human blood halos [1]: very significantly reduced
Compound: Cl.O=c1cc(C2CCNCC2)n2nc3cccc(Cl)c3c2[nH]1 [Example 3 in WO2015067549]

Compound: Cc1c(S(=O)(=O)Nc2ccc(-c3nc(C(=O)O)cs3)cc2S(C)(=O)=O)sc2ccc(F)cc12 [TY-51469, 2-(4-((5-fluoro-3-methylbenzo-[b]thiophene)-2-sulfonamido)-3-(methylsulfonyl)phenyl)thiazole-4-carboxylic acid]
pIC50 ([2]; Cathepsin G): 5.89
less potency on cathepsin G than chymase ([2]; cathepsin G vs chymase): 60 fold
pIC50 [3]: < 5.70
pIC50 [4]: < 5.70
pIC50 [5]: < 5.70
pIC50 [6]: < 5.70
pIC50 [7]: < 5.70
pIC50 [8]: < 5.70
pIC50 [9]: < 5.70
plasmin activity (fluorescence generation) in presence of chymase [10]: increased again concentration-dependently
plasmin activity (fluorescence generation) in presence of chymase [11]: increased again concentration-dependently
degradation of plasmin by chymase [12]: prevented
degradation of plasmin by chymase [13]: prevented
Thrombus length [14, 24]: 3.79 mm
Thrombus weight [14, 24]: 8.19 mg
Thrombus length [14, 25]: 1.79 mm
Thrombus weight [14, 25]: 4.04 mg
Thrombus length [14, 26]: 0.22 mm
Thrombus weight [14, 26]: 0.47 mg
Thrombus length [14, 27]: 1.0 mm
Thrombus weight [14, 27]: 1.29 mg
Abdominal aorta velocity [15, 28]: 487.6 ± 33.1 mm/s
Inferior vena cava velocity [15, 28]: 171.6 ± 27.1 mm/s
Abdominal aorta velocity [15, 29]: 505.8 ± 40.4 mm/s
Inferior vena cava velocity [15, 29]: 158.5 ± 18.3 mm/s
Abdominal aorta velocity [15, 30]: 508.2 ± 29.7 mm/s
Inferior vena cava velocity [15, 30]: 124.6 ± 28.7 mm/s
Thrombus weight [16]: 1.31 mg
Chymase activity [17]: 0.33 ± 0.25 nM AMC
Plasmin activity [18]: 13.16 ± 1.26 nM AMC
impact on bleeding time (in words) ([19]; mouse tail bleeding model): no impact on the bleeding time
Bleeding time prolongation ([19]; mouse tail bleeding, TY-51469 10 mg/kg): 1.0 xfold of Ctr
Bleeding time ([19]; mouse tail bleeding, TY-51469 10 mg/kg IP 1 h prior): 4.08 min
pIC50 [20]: 7.70
pIC50 [21]: 7.18

degradation of plasmin by chymase [13]: prevented
Compound: Cn1c(=O)oc2cc(-n3cc(C(=O)O)c(=O)n([C@@H]4CCc5c4cccc5C(F)(F)F)c3=O)ccc21 [fulacimstat, 1-(3-methyl-2-oxo-2,3-dihydro-1,3-benzoxazol-6-yl)-2,4-dioxo-3-[(1R)-4-(trifluoromethyl)-2,3-dihydro-1H-inden-1-yl]-1,2,3,4-tetrahydropyrimidine-5-carboxylic acid]
plasmin activity (fluorescence generation) in presence of chymase [11]: increased again concentration-dependently
oral bioavailability [22]: bioavailable after oral intake

Compound: tPA: Recombinant tissue-type plasminogen activator (rtPA, alteplase), the most widely used fibrinolytic drug
dominant half-life in human plasma [23]: < 5 min
